# Assay results: PubChem BioAssay AID256 (DTP/NCI, 2004)
# “And” between values parts separate entries of the source, which are not always exact repeats. Equal entries are not always repeated. Toxic doses and inconclusive results are not listed.
# System: CD2F1 mice, L1210 leukemia ip, survival T/C
# Test: NCI In Vivo Anticancer Drug Screen. Data for tumor model L1210 Leukemia (intraperitoneal) in CD2F1 (CDF1) mice
# Settings: higher = longer survival
# In short: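 Ratio T/C, where T is the treated-group value and C the vehicle-dosed control value, from mice implanted with a transplantable tumor.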
# [1] = endpoint: mean survival time, dose: 12.5 mg/kg/injection, schedule: Q01DX009 (ip), vehicle: Klucel (hydroxypropylcellulose) (HPC)
# [2] = endpoint: mean survival time, dose: 25.0 mg/kg/injection, schedule: Q01DX009 (ip), vehicle: Klucel (hydroxypropylcellulose) (HPC)
# [3] = endpoint: mean survival time, dose: 50.0 mg/kg/injection, schedule: Q01DX009 (ip), vehicle: Klucel (hydroxypropylcellulose) (HPC)
# [4] = endpoint: mean survival time, dose: 100.0 mg/kg/injection, schedule: Q01DX009 (ip), vehicle: Klucel (hydroxypropylcellulose) (HPC)
# [5] = endpoint: mean survival time, dose: 100.0 mg/kg/injection, schedule: Q04DX003 (ip), vehicle: saline with Tween-80
# [6] = endpoint: mean survival time, dose: 200.0 mg/kg/injection, schedule: Q04DX003 (ip), vehicle: saline with Tween-80
# [7] = endpoint: mean survival time, dose: 400.0 mg/kg/injection, schedule: Q04DX003 (ip), vehicle: saline with Tween-80
# [8] = endpoint: mean survival time, dose: 100.0 mg/kg/injection, schedule: Q01DX001 (ip), vehicle: saline
# [9] = endpoint: mean survival time, dose: 100.0 mg/kg/injection, schedule: Q04DX003 (ip), vehicle: saline
# [10] = endpoint: mean survival time, dose: 200.0 mg/kg/injection, schedule: Q01DX001 (ip), vehicle: saline
# [11] = endpoint: mean survival time, dose: 200.0 mg/kg/injection, schedule: Q04DX003 (ip), vehicle: saline
# [12] = endpoint: mean survival time, dose: 100.0 mg/kg/injection, schedule: Q01DX001 (ip), vehicle: saline with Tween-80
# [13] = endpoint: mean survival time, dose: 100.0 mg/kg/injection, schedule: Q01DX009 (ip), vehicle: saline with Tween-80
# [14] = endpoint: mean survival time, dose: 200.0 mg/kg/injection, schedule: Q01DX001 (ip), vehicle: saline with Tween-80
# [15] = endpoint: mean survival time, dose: 200.0 mg/kg/injection, schedule: Q01DX009 (ip), vehicle: saline with Tween-80
# [16] = endpoint: mean survival time, dose: 400.0 mg/kg/injection, schedule: Q01DX001 (ip), vehicle: saline with Tween-80
# [17] = endpoint: mean survival time, dose: 400.0 mg/kg/injection, schedule: Q01DX009 (ip), vehicle: saline with Tween-80
# [18] = endpoint: mean survival time, dose: 12.5 mg/kg/injection, schedule: Q01DX009 (ip), vehicle: saline with Tween-80
# [19] = endpoint: mean survival time, dose: 25.0 mg/kg/injection, schedule: Q01DX009 (ip), vehicle: saline with Tween-80
smiles,measurement,setting,value
[Cl][Pt+2][Cl].[NH-]CC1CCCC[N-]1 (stereo not given),T/C,"endpoint: mean survival time, dose: 6.25 mg/kg/injection, schedule: Q04DX003 (ip), vehicle: distilled water + Tween-80",121 % of control
same,T/C,"endpoint: mean survival time, dose: 12.5 mg/kg/injection, schedule: Q04DX003 (ip), vehicle: distilled water + Tween-80",115 % of control
same,T/C,"endpoint: mean survival time, dose: 25.0 mg/kg/injection, schedule: Q04DX003 (ip), vehicle: distilled water + Tween-80",150 % of control
same,T/C,"endpoint: mean survival time, dose: 50.0 mg/kg/injection, schedule: Q04DX003 (ip), vehicle: distilled water + Tween-80",123 % of control
same,T/C,"endpoint: mean survival time, dose: 200.0 mg/kg/injection, schedule: Q04DX003 (ip), vehicle: distilled water + Tween-80",91 % of control
same,T/C,"endpoint: median survival time, dose: 12.5 mg/kg/injection, schedule: Q04DX002 (ip), vehicle: saline",168 % of control
same,T/C,"endpoint: median survival time, dose: 25.0 mg/kg/injection, schedule: Q04DX002 (ip), vehicle: saline",158 % of control
CN1C(=O)C(Cl)=C(Cl)C1=O,T/C,"endpoint: mean survival time, dose: 1.56 mg/kg/injection, schedule: Q04DX003 (ip), vehicle: saline",103 % of control
same,T/C,"endpoint: mean survival time, dose: 3.13 mg/kg/injection, schedule: Q04DX003 (ip), vehicle: saline",101 % of control
same,T/C,"endpoint: mean survival time, dose: 6.25 mg/kg/injection, schedule: Q04DX003 (ip), vehicle: saline",101 % of control
O=C([CH-]C(=O)C(F)(F)F)c1ccccc1.O=C([CH-]C(=O)C(F)(F)F)c1ccccc1.O=C([CH-]C(=O)C(F)(F)F)c1ccccc1.O=C([CH-]C(=O)C(F)(F)F)c1ccccc1.[Eu+3].c1ccncc1,T/C,[1],95 % of control and 101 % of control
same,T/C,[2],101 % of control
same,T/C,[3],89 % of control and 106 % of control
same,T/C,[4],97 % of control and 109 % of control
same,T/C,"endpoint: mean survival time, dose: 200.0 mg/kg/injection, schedule: Q01DX009 (ip), vehicle: Klucel (hydroxypropylcellulose) (HPC)",95 % of control and 100 % of control
same,T/C,"endpoint: mean survival time, dose: 400.0 mg/kg/injection, schedule: Q01DX009 (ip), vehicle: Klucel (hydroxypropylcellulose) (HPC)",97 % of control and 100 % of control
COc1ccc(SC2=CC(=O)c3ccccc3C2=O)cc1,T/C,"endpoint: mean survival time, dose: 75.0 mg/kg/injection, schedule: Q01DX001 (ip), vehicle: other",97 % of control
same,T/C,"endpoint: mean survival time, dose: 150.0 mg/kg/injection, schedule: Q01DX001 (ip), vehicle: other",95 % of control
Nc1ccc(-c2c(N)ncc3ccccc23)cc1,T/C,"endpoint: mean survival time, dose: 50.0 mg/kg/injection, schedule: Q04DX003 (ip), vehicle: DMSO",101 % of control
COc1cc(CC(C)N)ccc1O (stereo not given),T/C,[5],105 % of control
same,T/C,[6],100 % of control
same,T/C,[7],89 % of control
NC1CCCCCCC1O (stereo not given),T/C,"endpoint: mean survival time, dose: 5.0 mg/kg/injection, schedule: Q01DX001 (ip), vehicle: saline sonified",114 % of control
same,T/C,"endpoint: mean survival time, dose: 10.0 mg/kg/injection, schedule: Q01DX001 (ip), vehicle: saline sonified",92 % of control
same,T/C,"endpoint: mean survival time, dose: 20.0 mg/kg/injection, schedule: Q01DX001 (ip), vehicle: saline sonified",100 % of control
COC(=O)C1C2CCC(C2)C1C(=O)OC (stereo not given),T/C,[5],97 % of control
same,T/C,[6],101 % of control
same,T/C,[7],93 % of control
CC1(C)C=CS1(=O)=O,T/C,"endpoint: mean survival time, dose: 50.0 mg/kg/injection, schedule: Q04DX003 (ip), vehicle: saline",98 % of control
same,T/C,[8],103 % of control
same,T/C,[9],96 % of control
same,T/C,[10],102 % of control
same,T/C,[11],101 % of control
COc1cc2c(cc1OC)C1CC(=O)C(CC(C)C)CN1CC2 (stereo not given),T/C,[5],96 % of control
same,T/C,[6],88 % of control
same,T/C,[7],100 % of control
C=C(Br)COCC,T/C,[5],89 % of control
CC(=O)Nc1cc(NC(C)=O)cc(N(CCCl)CCCl)c1,T/C,"endpoint: mean survival time, dose: 12.5 mg/kg/injection, schedule: Q01DX005 (ip), vehicle: water",100 % of control
same,T/C,"endpoint: mean survival time, dose: 25.0 mg/kg/injection, schedule: Q01DX005 (ip), vehicle: water",106 % of control
same,T/C,"endpoint: mean survival time, dose: 50.0 mg/kg/injection, schedule: Q01DX005 (ip), vehicle: water",101 % of control
CCCCCCCCCC/C=C/C1=C(N=[N+]=N)C(=O)c2ccccc2C1=O,T/C,"endpoint: mean survival time, dose: 100.0 mg/kg/injection, schedule: Q01DX001 (ip), vehicle: other",92 % of control
same,T/C,"endpoint: mean survival time, dose: 200.0 mg/kg/injection, schedule: Q01DX001 (ip), vehicle: other",92 % of control
same,T/C,"endpoint: mean survival time, dose: 400.0 mg/kg/injection, schedule: Q01DX001 (ip), vehicle: other",94 % of control
O=C(NC(=S)Nc1cc(Cl)ccc1O)c1cccc(Br)c1,T/C,[12],86 % of control and 89 % of control
same,T/C,[13],96 % of control and 101 % of control
same,T/C,"endpoint: mean survival time, dose: 100.0 mg/kg/injection, schedule: Q04DX002 (ip), vehicle: saline with Tween-80",89 % of control and 103 % of control
same,T/C,[5],91 % of control
same,T/C,[14],86 % of control
same,T/C,[15],97 % of control and 98 % of control
same,T/C,"endpoint: mean survival time, dose: 200.0 mg/kg/injection, schedule: Q04DX002 (ip), vehicle: saline with Tween-80",89 % of control and 100 % of control
same,T/C,[6],96 % of control
same,T/C,[16],86 % of control
same,T/C,[17],116 % of control and 101 % of control
same,T/C,"endpoint: mean survival time, dose: 400.0 mg/kg/injection, schedule: Q04DX002 (ip), vehicle: saline with Tween-80",94 % of control and 95 % of control
same,T/C,[7],95 % of control
CN(C)C1CCCCC1[N+](C)(C)C (stereo not given),T/C,"endpoint: mean survival time, dose: 5.0 mg/kg/injection, schedule: Q01DX009 (ip), vehicle: saline",101 % of control
same,T/C,"endpoint: mean survival time, dose: 5.0 mg/kg/injection, schedule: Q04DX003 (ip), vehicle: saline",104 % of control
same,T/C,"endpoint: mean survival time, dose: 10.0 mg/kg/injection, schedule: Q01DX009 (ip), vehicle: saline",107 % of control
same,T/C,"endpoint: mean survival time, dose: 10.0 mg/kg/injection, schedule: Q04DX003 (ip), vehicle: saline",101 % of control
same,T/C,"endpoint: mean survival time, dose: 20.0 mg/kg/injection, schedule: Q01DX009 (ip), vehicle: saline",104 % of control
same,T/C,"endpoint: mean survival time, dose: 20.0 mg/kg/injection, schedule: Q04DX003 (ip), vehicle: saline",98 % of control
Cc1cccc(/C=C2\Cc3ccccc3C2=O)c1,T/C,[12],103 % of control
same,T/C,[14],95 % of control
same,T/C,[16],103 % of control
OC(CN1CCCCC1)c1cccs1 (stereo not given),T/C,"endpoint: mean survival time, dose: 6.25 mg/kg/injection, schedule: Q01DX009 (ip), vehicle: saline with Tween-80",102 % of control
same,T/C,[18],98 % of control
same,T/C,[19],102 % of control
[Cl][Sn]([c]1ccccc1)[c]1ccccc1,T/C,"endpoint: mean survival time, dose: 6.25 mg/kg/injection, schedule: Q01DX009 (ip), vehicle: saline",97 % of control
same,T/C,[18],96 % of control
same,T/C,[19],106 % of control
same,T/C,"endpoint: mean survival time, dose: 25.0 mg/kg/injection, schedule: Q01DX009 (ip), vehicle: saline",106 % of control
same,T/C,"endpoint: mean survival time, dose: 50.0 mg/kg/injection, schedule: Q01DX009 (ip), vehicle: saline",94 % of control
CNC(=S)N(/N=C/c1cc(Cl)cc(Cl)c1O)c1ccccc1,T/C,[12],87 % of control
same,T/C,[14],87 % of control
same,T/C,[16],91 % of control
CC(C)(SCC(N)C(=O)O)c1ccc(-c2ccccc2)cc1 (stereo not given),T/C,[12],88 % of control
same,T/C,[14],86 % of control
same,T/C,[16],91 % of control
CC(C)(C)CC(C)(C)c1ccc(OCCOc2ccccc2NC(=O)c2ccc3ccccc3c2O)cc1,T/C,[13],94 % of control
same,T/C,[15],93 % of control
same,T/C,[17],94 % of control
CC(=O)NC(Cc1ccccc1)c1ccccc1 (stereo not given),T/C,[12],112 % of control
same,T/C,[14],105 % of control
same,T/C,[16],86 % of control
O=C(O)C1CCCC(C(=O)O)[N-]1.O=C(O)C1CCCC(C(=O)O)[N-]1.[Cr+2] (stereo not given),T/C,[9],104 % of control
same,T/C,[11],101 % of control
same,T/C,"endpoint: mean survival time, dose: 400.0 mg/kg/injection, schedule: Q04DX003 (ip), vehicle: saline",104 % of control
OC1C2CCN(CC2)C1CN1CC=C(c2ccccc2)CC1 (stereo not given),T/C,[9],100 % of control
CCCCCCCCCCCCCCCCOc1ccccc1NC(=O)CC(C)=O,T/C,[5],96 % of control
same,T/C,[6],94 % of control
same,T/C,[7],95 % of control
CNC(=O)OCc1c(COC(=O)NC)c(C)n(-c2ccc(OC)cc2)c1C,T/C,"endpoint: mean survival time, dose: 3.12 mg/kg/injection, schedule: Q01DX009 (ip), vehicle: Klucel (hydroxypropylcellulose) (HPC)",101 % of control and 106 % of control
same,T/C,"endpoint: mean survival time, dose: 6.25 mg/kg/injection, schedule: Q01DX009 (ip), vehicle: Klucel (hydroxypropylcellulose) (HPC)",101 % of control and 106 % of control
same,T/C,[1],113 % of control and 102 % of control
same,T/C,[2],121 % of control and 98 % of control
same,T/C,[3],116 % of control and 121 % of control
same,T/C,[4],87 % of control
C[n+]1ccncc1,T/C,[8],102 % of control
same,T/C,[10],102 % of control
same,T/C,"endpoint: mean survival time, dose: 400.0 mg/kg/injection, schedule: Q01DX001 (ip), vehicle: saline",104 % of control
